# ChEMBL document CHEMBL5126638, “Resin Glycosides from Operculina hamiltonii and Their Synergism with Vinblastine in Cancer Cells” (J Nat Prod, 2022)
# Calls of active or inactive are those of the source. The calls are words filed in the database; no cut-off is given here.
# How the values were obtained:
# Format in all cases: functional, cell-based
# MCF7-VP [1] = experiment: Cytotoxicity in human MCF7/Vin cells assessed as growth inhibition level after 48 hrs by SRB assay
# HeLa [2] = experiment: Cytotoxicity in human HeLa cells assessed as growth inhibition level after 48 hrs by SRB assay
# HCT-116 [3] = experiment: Cytotoxicity in human HCT-116 cells assessed as growth inhibition level after 48 hrs by SRB assay; conditions: HCT-116, 48 h
# HeLa [4] = experiment: Enhancement of 0.003 uM vinblastine-induced cytotoxicity in human HeLa cells assessed as growth inhibition level after 48 hrs by SRB assay
# MCF7-VP [5] = experiment: Enhancement of 0.003 uM vinblastine-induced cytotoxicity in human MCF7/Vin cells assessed as growth inhibition level after 48 hrs by SRB assay
# MCF7 [6] = experiment: Enhancement of 0.003 uM vinblastine-induced cytotoxicity in human MCF7 cells assessed as growth inhibition level after 48 hrs by SRB assay; conditions: MCF7, 48 h
# HCT-116 [7] = experiment: Enhancement of 0.003 uM vinblastine-induced cytotoxicity in human HCT-116 cells assessed as growth inhibition level after 48 hrs by SRB assay; conditions: HCT-116, 48 h
# MCF7 [8] = experiment: Cytotoxicity in human MCF7 cells assessed as growth inhibition level after 48 hrs by SRB assay; conditions: MCF7, 48 h
# MCF7 [9] = experiment: Enhancement of 0.4 uM vinblastine-induced cytotoxicity in human MCF7 cells assessed as growth inhibition level at 25 uM after 48 hrs by Microscopic visualization based assay
structure (smiles),measurement,setting,value
COc1cc2c(c(OC)c1OC)-c1ccc(OC)c(=O)cc1[C@@H](NC(C)=O)CC2 [COLCHICINE],IC50,MCF7-VP [1],1.57 µM
same,IC50,HeLa [2],0.006 µM
same,IC50,HCT-116 [3],0.08 µM
CCCCCCCCCC(=O)O[C@H]1[C@H](O[C@@H]2[C@@H](O)[C@@H](O)[C@H](O[C@H]3[C@H](O[C@@H](CCCCC)CCCCCCCCCC(=O)OC)O[C@H](C)[C@H](O)[C@@H]3O)O[C@H]2C)O[C@@H](C)[C@H](O[C@@H]2O[C@@H](C)[C@H](O)[C@@H](O)[C@H]2O)[C@H]1O[C@@H]1O[C@H](CO)[C@@H](O)[C@H](O)[C@H]1O,IC50,MCF7-VP [1],> 25 µM
same,IC50,HeLa [4],26.1 µM
same,IC50,MCF7-VP [5],10 µM
same,IC50,MCF7 [6],4.7 µM
same,IC50,HCT-116 [7],8.6 µM
same,IC50,HeLa [2],> 25 µM
same,IC50,MCF7 [8],> 25 µM
same,IC50,HCT-116 [3],> 25 µM
same,Activity,MCF7 [9],Active
CC[C@]1(O)C[C@@H]2CN(CCc3c([nH]c4ccccc34)[C@@](C(=O)OC)(c3cc4c(cc3OC)N(C)[C@H]3[C@@](O)(C(=O)OC)[C@H](OC(C)=O)[C@]5(CC)C=CCN6CC[C@]43[C@@H]65)C2)C1 [VINBLASTINE],IC50,MCF7-VP [1],1.63 µM
same,IC50,HeLa [2],0.004 µM
same,IC50,MCF7 [8],0.035 µM
same,IC50,HCT-116 [3],0.3 µM
CCCCCCCCCCCC(=O)O[C@H]1[C@H](O[C@@H]2[C@H]3OC(=O)CCCCCCCCC[C@H](CCCCC)O[C@@H]4O[C@H](C)[C@H](O)[C@H](O)[C@H]4O[C@H](O[C@H]2C)[C@@H]3O)O[C@@H](C)[C@H](O[C@@H]2O[C@@H](C)[C@H](O)[C@@H](O)[C@H]2O)[C@H]1O[C@@H]1O[C@H](CO)[C@@H](O)[C@H](O)[C@H]1O,IC50,MCF7-VP [1],> 25 µM
same,IC50,HeLa [4],26.6 µM
same,IC50,MCF7-VP [5],18.4 µM
same,IC50,MCF7 [6],15.2 µM
same,IC50,HCT-116 [7],17.7 µM
same,IC50,HeLa [2],> 25 µM
same,IC50,MCF7 [8],> 25 µM
same,IC50,HCT-116 [3],> 25 µM
same,Activity,MCF7 [9],Active
CCCCCCCCCCCC(=O)O[C@H]1[C@H](O[C@@H]2[C@@H](O)[C@@H](O)[C@H](O[C@H]3[C@H](O[C@@H](CCCCC)CCCCCCCCCC(=O)OC)O[C@H](C)[C@H](O)[C@@H]3O)O[C@H]2C)O[C@@H](C)[C@H](O[C@@H]2O[C@@H](C)[C@H](O)[C@@H](O)[C@H]2O)[C@H]1O[C@@H]1O[C@H](CO)[C@@H](O)[C@H](O)[C@H]1O,IC50,MCF7-VP [1],> 25 µM
same,IC50,HeLa [4],14.6 µM
same,IC50,MCF7-VP [5],3.1 µM
same,IC50,MCF7 [6],4.4 µM
same,IC50,HCT-116 [7],6.8 µM
same,IC50,HeLa [2],> 25 µM
same,IC50,MCF7 [8],> 25 µM
same,IC50,HCT-116 [3],> 25 µM
same,Activity,MCF7 [9],Active
CCCCCCCCCC(=O)O[C@H]1[C@H](O[C@@H]2[C@H]3OC(=O)CCCCCCCCC[C@H](CCCCC)O[C@@H]4O[C@H](C)[C@H](O)[C@H](O)[C@H]4O[C@H](O[C@H]2C)[C@@H]3O)O[C@@H](C)[C@H](O[C@@H]2O[C@@H](C)[C@H](O)[C@@H](O)[C@H]2O)[C@H]1O[C@@H]1O[C@H](CO)[C@@H](O)[C@H](O)[C@H]1O,IC50,MCF7-VP [1],> 25 µM
same,IC50,HeLa [4],23.8 µM
same,IC50,MCF7-VP [5],19.4 µM
same,IC50,MCF7 [6],12.3 µM
same,IC50,HCT-116 [7],12.8 µM
same,IC50,HeLa [2],> 25 µM
same,IC50,MCF7 [8],> 25 µM
same,IC50,HCT-116 [3],> 25 µM
same,Activity,MCF7 [9],Active
